# Columns and labels:
# Assay type in all cases: functional
# Brassica napus [1] = experiment: Herbicidal activity against Brassica napus (oilseed rape) assessed as inhibition of weed growth at 750 g/ha using postemergence treatment protocol; details: post-emergence
# Amaranthus retroflexus [2] = experiment: Herbicidal activity against Amaranthus retroflexus assessed as inhibition of weed growth at 750 g/ha using postemergence treatment protocol; details: post-emergence
# Amaranthus retroflexus [3] = experiment: Herbicidal activity against Amaranthus retroflexus assessed as inhibition of weed growth at 1.5 kg/ha using postemergence treatment protocol; details: post-emergence
# Amaranthus retroflexus [4] = experiment: Herbicidal activity against Amaranthus retroflexus assessed as inhibition of weed growth at 1.5 kg/ha using preemergence treatment protocol; details: pre-emergence
# Amaranthus retroflexus [5] = experiment: Herbicidal activity against Amaranthus retroflexus assessed as inhibition of weed growth at 375 g/ha using postemergence treatment protocol; details: post-emergence
# Brassica napus [6] = experiment: Herbicidal activity against Brassica napus (oilseed rape) assessed as inhibition of weed growth at 1.5 kg/ha using postemergence treatment protocol; details: post-emergence
# Digitaria sanguinalis [7] = experiment: Herbicidal activity against Digitaria sanguinalis (hairy crabgrass) assessed as inhibition of weed growth at 1.5 kg/ha using pre-emergence treatment protocol
# Brassica napus [8] = experiment: Herbicidal activity against Brassica napus (oilseed rape) assessed as inhibition of weed growth at 1.5 kg/ha using preemergence treatment protocol; details: pre-emergence
# Echinochloa crus-galli [9] = experiment: Herbicidal activity against Echinochloa crus-galli (barnyard grass) assessed as inhibition of weed growth at 1.5 kg/ha using preemergence treatment protocol; details: pre-emergence
# Echinochloa crus-galli [10] = experiment: Herbicidal activity against Echinochloa crus-galli (barnyard grass) assessed as inhibition of weed growth at 1.5 kg/ha using postemergence treatment protocol; details: post-emergence
# Brassica napus [11] = experiment: Herbicidal activity against Brassica napus (oilseed rape) assessed as inhibition of weed growth at 375 g/ha using postemergence treatment protocol; details: post-emergence
# Digitaria sanguinalis [12] = experiment: Herbicidal activity against Digitaria sanguinalis (hairy crabgrass) assessed as inhibition of weed growth at 1.5 kg/ha using post-emergence treatment protocol
# Amaranthus retroflexus [13] = experiment: Herbicidal activity against Amaranthus retroflexus assessed as inhibition of weed growth at 150 g/ha using postemergence treatment protocol; details: post-emergence
# Brassica napus [14] = experiment: Herbicidal activity against Brassica napus (oilseed rape) assessed as inhibition of weed growth at 75 g/ha using postemergence treatment protocol; details: post-emergence
# Amaranthus retroflexus [15] = experiment: Herbicidal activity against Amaranthus retroflexus assessed as inhibition of weed growth at 75 g/ha using postemergence treatment protocol; details: post-emergence
# Brassica napus [16] = experiment: Herbicidal activity against Brassica napus (oilseed rape) assessed as inhibition of weed growth at 150 g/ha using postemergence treatment protocol; details: post-emergence
SMILES,inhibition at 750 g/ha (Brassica napus [1]) [%],inhibition at 750 g/ha (Amaranthus retroflexus [2]) [%],inhibition at 1500 g/ha (Amaranthus retroflexus [3]) [%],inhibition at 1500 g/ha (Amaranthus retroflexus [4]) [%],inhibition at 375 g/ha (Amaranthus retroflexus [5]) [%],inhibition at 1500 g/ha (Brassica napus [6]) [%],inhibition at 1500 g/ha (Digitaria sanguinalis [7]) [%],inhibition at 1500 g/ha (Brassica napus [8]) [%],inhibition at 1500 g/ha (Echinochloa crus-galli [9]) [%],inhibition at 1500 g/ha (Echinochloa crus-galli [10]) [%],inhibition at 375 g/ha (Brassica napus [11]) [%],inhibition at 1500 g/ha (Digitaria sanguinalis [12]) [%],inhibition at 150 g/ha (Amaranthus retroflexus [13]) [%],inhibition at 75 g/ha (Brassica napus [14]) [%],inhibition at 75 g/ha (Amaranthus retroflexus [15]) [%],inhibition at 150 g/ha (Brassica napus [16]) [%]
CCOCCOC(=O)/C(C#N)=C(\NCc1cc(-c2ccc(C(C)(C)C)cc2)no1)C(C)C,85.8,89.1,100,0,54.3,100,0,0,0,0,41.7,24.7,,,,
CCOCCOC(=O)/C(C#N)=C(\NCc1cc(-c2ccc(Cl)cc2)no1)SC,0,22,89.9,23.1,4,100,14.8,28.4,0,58.2,0,72.7,,,,
CCOCCOC(=O)/C(C#N)=C(\NCc1ccc(Cl)nc1)SC,100,87.9,100,32.4,18.7,100,18.8,47.6,3.6,55.3,100,54.1,0,80.9,0,100
CCOCCOC(=O)/C(C#N)=C(\NCc1cc(-c2ccc(Cl)cc2Cl)no1)C(C)C,100,100,100,50.2,100,100,18.1,21.3,0,56.7,100,63.3,19.6,11.4,10.9,21.8
CCOCCOC(=O)/C(C#N)=C(\NCc1cc(-c2ccc(OC)cc2)no1)SC,94.6,87,100,0,34.8,100,0,10,0,0,57.5,32.5,,,,
CCOCCOC(=O)/C(C#N)=C(\NCc1cc(-c2ccc(Cl)cc2Cl)no1)SC,0,46,89.9,65.8,0,100,15.6,45,0,45.2,0,64.1,,,,
CCOCCOC(=O)/C(C#N)=C(\NCc1cc(-c2ccccc2OC)no1)C(C)C,100,100,95.1,44.9,100,100,5.5,17.4,0,56.4,100,82,23.9,17.1,17.4,27
CCOCCOC(=O)/C(C#N)=C(\NCc1cc(-c2ccccc2Cl)no1)C(C)C,100,98.3,100,0,96,100,0,,0,47.2,100,24,94.4,100,77,100
CCOCCOC(=O)/C(C#N)=C(\NCc1cc(C(C)C)no1)SC,76.9,37.6,94,25,0,100,0,,0,32.6,52.3,48.4,,,,
CCOCCOC(=O)/C(C#N)=C(\NCc1cc(Br)no1)SC,93,0,99.1,0,0,100,0,,2.4,36.8,87,55.3,,,,
CCOCCOC(=O)/C(C#N)=C(\NCc1cc(-c2ccc(C(C)(C)C)cc2)no1)SC,22.2,45.7,100,10,28.3,100,0,0,0,0,9.8,55.8,,,,
CCOCCOC(=O)/C(C#N)=C(\NCc1cc(-c2ccccc2)no1)SC,100,34,100,67.7,7,100,0,15.8,0,57,17.8,55.5,,,,
CCOCCOC(=O)/C(C#N)=C(\NCc1cc(-c2ccccc2OC)no1)SC,43.8,16,90.6,47.8,0,100,17.3,19,0,52,15.8,52.3,,,,
CCOCCOC(=O)/C(C#N)=C(\NCc1cc(Br)no1)C(C)C,100,100,100,60,100,100,0,,22.6,66.5,100,42.1,90,100,46.5,100
CCOCCOC(=O)/C(C#N)=C(\NCc1cc(-c2ccccc2)no1)C(C)C,100,100,100,88.6,100,100,24.9,28.7,0,40,100,59.4,78.3,54.2,17.4,97.3
CCOCCOC(=O)/C(C#N)=C(\NCc1cc(C(C)C)no1)C(C)C,100,100,100,100,54.6,100,0,,5,12.5,97.7,48.4,0,52,0,92.8
CCOCCOC(=O)/C(C#N)=C(\NCc1cc(-c2ccc(Cl)cc2)no1)C(C)C,100,100,100,68.7,100,100,0,10.6,0,33,100,64.1,26.1,29.6,8.7,36.3

# Reference: ChEMBL document CHEMBL3046355, “Design, synthesis, and herbicidal activities of novel 2-cyanoacrylates containing isoxazole moieties” (2010)
